In general, IC50 refers to the concentration needed to halve the response being measured. Low readings indicate inhibition by little substance, high ones a need for much substance.

This assay deals with MOLM-13 cells. Description: MOLM-13 Cell Proliferation Assay (indicator of DHODH inhibition). The settings on record: Homo sapiens, 72 Hours of culture, CellTiter-Glo, no uridine. It is filed as cell-based. A digest of the protocol: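 Low-passage MOLM-13 cells (10^4/well) in RPMI 1640 + 10% FBS exposed to compound (0.5% DMSO final) for 72 h at 37 °C, 5% CO2. Viability read by CellTiter-Glo luminescence; growth reflects de novo pyrimidine synthesis dependent on DHODH.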
(In ATP-based viability assays light output follows the ATP content of the culture.)
`FC(F)(F)c1ccnc(N2CCc3c([nH]c4ccc(Cl)cc34)C2c2cnc(N3CCC3)nc2)n1` (stereo not drawn) [Compound 344, 1-[2-(azetidin-1-yl)pyrimidin-5-yl]-6-chloro-2-[4-(trifluoromethyl)pyrimidin-2-yl]-2,3,4,9-tetrahydro-1H-pyrido[3,4-b]indole] showed an IC50 of 9.5 nM.
The value for `Cc1nc(C)nc(N2CCc3c([nH]c4ccc(Cl)cc34)C2c2cnc(N3CCC3)nc2)n1` (stereo not drawn) [Compound 345, 1-[2-(azetidin-1-yl)pyrimidin-5-yl]-6-chloro-2-(4,6-dimethyl-1,3,5-triazin-2-yl)-2,3,4,9-tetrahydro-1H-pyrido[3,4-b]indole] was 43.2 nM.
For `CSc1ncc(C2c3[nH]c4ccc(Cl)cc4c3CCN2c2nc(C)nc(C)n2)cn1` (stereo not drawn) [Compound 346, 6-chloro-2-(4,6-dimethyl-1,3,5-triazin-2-yl)-1-[2-(methylsulfanyl)pyrimidin-5-yl]-2,3,4,9-tetrahydro-1H-pyrido[3,4-b]indole], the IC50 came out at 5.2 nM.
The compound `FC(F)(F)c1ccnc(N2CCc3c([nH]c4ccc(Cl)cc34)C2c2ccc(Cl)cc2)n1` (stereo not drawn) [Compound 349, 6-chloro-1-(4-chlorophenyl)-2-[4-(trifluoromethyl)pyrimidin-2-yl]-2,3,4,9-tetrahydro-1H-pyrido[3,4-b]indole] yielded an IC50 of 3 nM.
In the case of `Cc1ccnc(N2CCc3c([nH]c4c(N)cc(Cl)cc34)C2c2ccc(N3CCOCC3)nc2)n1` (stereo not drawn) [Compound 351, 6-chloro-2-(4-methylpyrimidin-2-yl)-1-[6-(morpholin-4-yl)pyridin-3-yl]-2,3,4,9-tetrahydro-1H-pyrido[3,4-b]indol-8-amine] it was 2.1 nM; in that of `Oc1ccccc1C1c2[nH]c3ccc(Cl)cc3c2CCN1c1nccc(C(F)(F)F)n1` (stereo not drawn) [Compound 353, 2-{6-chloro-2-[4-(trifluoromethyl)pyrimidin-2-yl]-2,3,4,9-tetrahydro-1H-pyrido[3,4-b]indol-1-yl}phenol], 5.7 nM.
In the case of `Cc1ccc(C2c3[nH]c4ccc(Cl)cc4c3CCN2c2nccc(C(F)(F)F)n2)cc1F` (stereo not drawn) [Compound 354, 6-chloro-1-(3-fluoro-4-methylphenyl)-2-[4-(trifluoromethyl)pyrimidin-2-yl]-2,3,4,9-tetrahydro-1H-pyrido[3,4-b]indole] it was 2.2 nM; in that of `Cc1ccc(C2c3[nH]c4ccc(Cl)cc4c3CCN2c2nc(C(F)(F)F)cc(C(F)(F)F)n2)cc1` (stereo not drawn) [Compound 360, 2-[4,6-bis(trifluoromethyl)pyrimidin-2-yl]-6-chloro-1-(4-methylphenyl)-2,3,4,9-tetrahydro-1H-pyrido[3,4-b]indole], 0.9 nM; in that of `Fc1cnc(N2CCc3c([nH]c4ccc(Cl)cc34)C2c2cnc(N3CCOCC3)nc2)nc1` (stereo not drawn) [Compound 364, 6-chloro-2-(5-fluoropyrimidin-2-yl)-1-[2-(morpholin-4-yl)pyrimidin-5-yl]-2,3,4,9-tetrahydro-1H-pyrido[3,4-b]indole], 10.1 nM.
The value for `Cc1nc(N2CCc3c([nH]c4ccc(Cl)cc34)C2c2ccc(N3CCOCC3)nc2)ncc1F` (stereo not drawn) [Compound 365, 6-chloro-2-(5-fluoro-4-methylpyrimidin-2-yl)-1-[6-(morpholin-4-yl)pyridin-3-yl]-2,3,4,9-tetrahydro-1H-pyrido[3,4-b]indole] was 8 nM.
As to `Cc1nc(N2CCc3c([nH]c4ccc(Cl)cc34)C2c2cnc(N3CCOCC3)nc2)ncc1F` (stereo not drawn) [Compound 366, 6-chloro-2-(5-fluoro-4-methylpyrimidin-2-yl)-1-[2-(morpholin-4-yl)pyrimidin-5-yl]-2,3,4,9-tetrahydro-1H-pyrido[3,4-b]indole], it took 10 nM to reach half-maximal inhibition (IC50).
`Cc1nc(N2CCc3c([nH]c4ccc(Cl)cc34)C2c2ccc(N3CCOCC3)nc2)nc(C)c1F` (stereo not drawn) [Compound 367, 6-chloro-2-(5-fluoro-4,6-dimethylpyrimidin-2-yl)-1-[6-(morpholin-4-yl)pyridin-3-yl]-2,3,4,9-tetrahydro-1H-pyrido[3,4-b]indole] yielded an IC50 of 4.7 nM.
Regarding `Cc1nc(N2CCc3c([nH]c4ccc(Cl)cc34)C2c2cnc(N3CCOCC3)nc2)nc(C)c1F` (stereo not drawn) [Compound 368, 6-chloro-2-(5-fluoro-4,6-dimethylpyrimidin-2-yl)-1-[2-(morpholin-4-yl)pyrimidin-5-yl]-2,3,4,9-tetrahydro-1H-pyrido[3,4-b]indole], 7.9 nM corresponded to half-maximal inhibition (IC50).
`Cc1nc(C)nc(N2CCc3c([nH]c4c(O)cc(Cl)cc34)C2c2cnc(N3CCOCC3)nc2)n1` (stereo not drawn) [Compound 370, 6-chloro-2-(4,6-dimethyl-1,3,5-triazin-2-yl)-1-[2-(morpholin-4-yl)pyrimidin-5-yl]-2,3,4,9-tetrahydro-1H-pyrido[3,4-b]indol-8-ol] had an IC50 of 8.1 nM.
With `Fc1cccc(C2c3[nH]c4ccc(Cl)cc4c3CCN2c2nccc(C(F)(F)F)n2)c1` (stereo not drawn) [Compound 371, 6-chloro-1-(3-fluorophenyl)-2-[4-(trifluoromethyl)pyrimidin-2-yl]-2,3,4,9-tetrahydro-1H-pyrido[3,4-b]indole], the IC50 came to 8.8 nM.
The value for `FC(F)(F)c1ccnc(N2CCc3c([nH]c4ccc(Cl)cc34)C2c2ccc(N3C[C@H]4C[C@@H]3CO4)nc2)n1` (stereo partly drawn) [Compound 373, 6-chloro-1-{6-[(1R,4R)-2-oxa-5-azabicyclo[2.2.1]heptan-5-yl]pyridin-3-yl}-2-[4-(trifluoromethyl)pyrimidin-2-yl]-2,3,4,9-tetrahydro-1H-pyrido[3,4-b]indole] was 4.6 nM; that for `FC(F)(F)c1ccnc(N2CCc3c([nH]c4ccc(Cl)cc34)C2c2ccc(N3C[C@@H]4C[C@H]3CO4)nc2)n1` (stereo partly drawn) [Compound 375, 6-chloro-1-{6-[(1S,4S)-2-oxa-5-azabicyclo[2.2.1]heptan-5-yl]pyridin-3-yl}-2-[4-(trifluoromethyl)pyrimidin-2-yl]-2,3,4,9-tetrahydro-1H-pyrido[3,4-b]indole] was 6.7 nM; that for `Cc1nc(C)nc(N2CCc3c([nH]c4ccc(Cl)cc34)C2c2ccc(N3C[C@H]4C[C@@H]3CO4)nc2)n1` (stereo partly drawn) [Compound 376, 6-chloro-2-(4,6-dimethyl-1,3,5-triazin-2-yl)-1-{6-[(1R,4R)-2-oxa-5-azabicyclo[2.2.1]heptan-5-yl]pyridin-3-yl}-2,3,4,9-tetrahydro-1H-pyrido[3,4-b]indole] was 33.2 nM.
The compound `Cc1nc(C)nc(N2CCc3c([nH]c4ccc(Cl)cc34)C2c2ccc(N3C[C@@H]4C[C@H]3CO4)nc2)n1` (stereo partly drawn) [Compound 377, 6-chloro-2-(4,6-dimethyl-1,3,5-triazin-2-yl)-1-{6-[(1S,4S)-2-oxa-5-azabicyclo[2.2.1]heptan-5-yl]pyridin-3-yl}-2,3,4,9-tetrahydro-1H-pyrido[3,4-b]indole] came in with an IC50 of 41.6 nM.
The compound `Cc1ccc(C2c3[nH]c4ccc(Cl)cc4c3CCN2c2nccc(C#N)n2)cc1` (stereo not drawn) [Compound 378, 2-[6-chloro-1-(4-methylphenyl)-1,3,4,9-tetrahydro-2H-pyrido[3,4-b]indol-2-yl]pyrimidine-4-carbonitrile] had an IC50 of 7 nM.
In the case of `Cc1ccc(C2c3[nH]c4ccc(Cl)cc4c3CCN2c2nc(C)cc(C#N)n2)cc1` (stereo not drawn) [Compound 379, 2-[6-chloro-1-(4-methylphenyl)-1,3,4,9-tetrahydro-2H-pyrido[3,4-b]indol-2-yl]-6-methylpyrimidine-4-carbonitrile] it was 4.5 nM.

Source of the values: patent publication US20250186437A1, “CARBOLINE COMPOUNDS AND USE THEREOF” (PTC Therapeutics, Inc., priority 2021, published 2025).
